The numbers were not newly measured in patent publication US7767881B2, “Utilization of histamine receptor h3 gene participating in body weight or food intake control” (priority 2001, dated 2010), which cites them from elsewhere.

The conditions of data set [1]: experimental epilepsy model.
The test system of data set [2] is mice.
The subject of data set [3] is mice. This is another data set of the same source.
Data set [4] has as its system mice. The source holds these as a separate data set.
For data set [5], the system named is senescence-accelerated mice. The settings on record: senescence-accelerated mice with learning disabilities.

In the case of `CCCN(CCC)C1CCc2cccc(O)c2C1` (centres unmarked) [8-OH-DPAT], the “histamine neuron metabolic turnover” value with histamine neuron is on record as “reduce histamine neuron metabolic turnover”.

In the case of `NC(=NCc1ccc(Cl)cc1)SCCCc1cnc[nH]1` [Clobenpropit], in data set [1], the electroconvulsion result is given as “suppressed”.

Turning to `C[C@@H](N)Cc1c[nH]cn1` [RAMH, R-α-methylhistamine], the voluntary movement entry with rats and with mice [2] was “decreases voluntary movement” throughout. For the same molecule, the deep slow-wave sleep entry in the data set on cats (administration of the agonist) is reported as “significant increase in deep slow-wave sleep”.

Consider `O=C1CC2(CCCC2)CC(=O)N1CCCCN1CCN(c2ncccn2)CC1` [buspirone], for which, in the data set on histamine neuron, the “histamine neuron metabolic turnover” value is listed as “reduce histamine neuron metabolic turnover”.

`Clc1cccc(Cl)c1NC1=NCCN1` [clinidine]: the “histamine neuron metabolic turnover” value in the data set with histamine neuron is “reduce histamine neuron metabolic turnover”.

`NCCc1c[nH]cn1` [histamine]: the analgesic/algesic action result in the data set with mice [3] (mice, intracerebral administration) is reported as “analgesic and/or algesic action, depending on the dose”.

Turning to `S=C(NC1CCCCC1)N1CCC(c2cnc[nH]2)CC1` [thioperamide], the anxiety result in the data set with mice [4] is “anxiety-inducing effects”. In addition, in the data set with cats (effect antagonized by RAMH), the waking entry is reported as “waking effects were observed”. In addition, the “effect on RAMH-induced increase in deep slow-wave sleep” value with cats (given against RAMH) is reported as “reversed”. In addition, the electroconvulsion entry in data set [1] is “suppressed”. In addition, the learning entry in data set [5] is listed as “improving learning”. In the data set on mice [3] (due to stimulation of the histamine receptor H1 protein, antagonized by RAMH), the analgesia entry is “attenuation of analgesia”.
